Holding throughout (experiment): relative viability (nuclei count vs DMSO), 5 days (fraction); higher = more cells survive
Compound in assay [1]: CC(C)CCN1c2nc(Nc3cc(F)c(O)c(F)c3)ncc2N(C)C(=O)C1C [BI-D1870] + CC(C)C[C@H](NC(=O)[C@H](Cc1ccccc1)NC(=O)c1cnccn1)B(O)O [Bortezomib] (partner 0.002 µM)
In short, it runs like this: (§1)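 Cells from lung cancer lines were seeded into 1536-well plates and, one day later, dosed by pin tool. Treatments were either a single drug or a fixed dose of an anchor drug with five library-drug doses (not always all listed) in √10 steps. After 5 days, nuclei were stained in a one-step fixation (final 0.05% Triton X-100, 1% formaldehyde, 1 ug/ml Hoechst) and counted on 4× images, and relative viability is the treated-to-vehicle nuclei ratio, as the median of duplicate plates.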

Compound in assay [2]: CC(C)CCN1c2nc(Nc3cc(F)c(O)c(F)c3)ncc2N(C)C(=O)C1C [BI-D1870] + C[C@@H](Oc1cc(-c2cnn(C3CCNCC3)c2)cnc1N)c1c(Cl)ccc(F)c1Cl [Crizotinib] (partner 1 µM)
The method in brief:
as §1

Compound in assay [3]: O=c1ncccn1[C@@H]1O[C@H](CO)[C@@H](O)[C@H]1O [Zebularine] + CC(C)C[C@H](NC(=O)[C@H](Cc1ccccc1)NC(=O)c1cnccn1)B(O)O [Bortezomib] (partner 0.002 µM)
The method in brief:
as §1

Compound in assay [4]: O=c1ncccn1[C@@H]1O[C@H](CO)[C@@H](O)[C@H]1O [Zebularine] + NC(=O)Nc1cc(-c2cccc(F)c2)sc1C(=O)N[C@H]1CCCNC1 [AZD7762] (partner 0.2 µM)
In short, it runs like this: as §1

As to NCI-H322M, the relative viability in assay [1] (first compound 0.04 µM) was found to be 1.23; in assay [1] (first compound 0.1265 µM), 1.24; in assay [1] (first compound 0.4 µM) it was 1.22; in assay [1] (first compound 1.265 µM), 1.14; in assay [1] (first compound 4 µM), 1.06; in assay [2] (first compound 0.04 µM), 0.924. In addition, the relative viability in assay [2] (first compound 0.1265 µM) was found to be 0.822; in assay [2] (first compound 0.4 µM), 0.795; in assay [2] (first compound 1.265 µM) it was 1.05; in assay [2] (first compound 4 µM), 0.651; in assay [3] (first compound 1 µM), 1.19; in assay [3] (first compound 3.162 µM), 1.29. Further, the relative viability amounted to 1.06 in assay [3] (first compound 10 µM); 1.17 in assay [3] (first compound 31.62 µM); 0.824 in assay [3] (first compound 100 µM); 0.555 in assay [4] (first compound 1 µM); 0.606 in assay [4] (first compound 3.162 µM); 0.572 in assay [4] (first compound 10 µM). For the same cell line, the relative viability turned out to be 0.522 in assay [4] (first compound 31.62 µM) and 0.528 in assay [4] (first compound 100 µM).

For the cell line NCI-H838, the relative viability worked out at 0.901 in assay [1] (first compound 0.04 µM); 0.72 in assay [1] (first compound 0.1265 µM); 0.747 in assay [1] (first compound 0.4 µM); 1.14 in assay [1] (first compound 1.265 µM); 0.768 in assay [1] (first compound 4 µM); 0.902 in assay [2] (first compound 0.04 µM). Further, the relative viability was found to be 0.715 in assay [2] (first compound 0.1265 µM); 0.926 in assay [2] (first compound 0.4 µM); 0.949 in assay [2] (first compound 1.265 µM); 0.932 in assay [2] (first compound 4 µM); 0.994 in assay [3] (first compound 1 µM); 0.727 in assay [3] (first compound 3.162 µM). Besides, the relative viability in assay [3] (first compound 10 µM) was 0.598; in assay [3] (first compound 31.62 µM), 0.801; in assay [3] (first compound 100 µM), 0.298; in assay [4] (first compound 1 µM), 0.934; in assay [4] (first compound 3.162 µM) it was 0.977; in assay [4] (first compound 10 µM), 0.764. In addition, the relative viability is 0.861 in assay [4] (first compound 31.62 µM) and 0.738 in assay [4] (first compound 100 µM).

For CAL-12T, the relative viability turned out to be 1.15 in assay [1] (first compound 0.04 µM); 0.907 in assay [1] (first compound 0.1265 µM); 0.932 in assay [1] (first compound 0.4 µM); 0.895 in assay [1] (first compound 1.265 µM); 0.635 in assay [1] (first compound 4 µM); 0.598 in assay [2] (first compound 0.04 µM). Besides, the relative viability was determined as 0.53 in assay [2] (first compound 0.1265 µM); 0.662 in assay [2] (first compound 0.4 µM); 0.506 in assay [2] (first compound 1.265 µM); 0.283 in assay [2] (first compound 4 µM); 1.22 in assay [3] (first compound 1 µM); 1.01 in assay [3] (first compound 3.162 µM). Moreover, the relative viability is 0.68 in assay [3] (first compound 31.62 µM); 0.483 in assay [3] (first compound 100 µM); 0.659 in assay [4] (first compound 1 µM); 0.674 in assay [4] (first compound 3.162 µM); 0.501 in assay [4] (first compound 10 µM); 0.689 in assay [4] (first compound 31.62 µM). For the same cell line, the relative viability in assay [4] (first compound 100 µM) was determined as 0.602.

(Values after the supplement of paper PMC10307832.)
